Structures can show the parent of a compound that is named as a salt.
Legend:
[1] = Determination of the hygroscopicity of the crystalline salts (weight variation and Karl Fischer in humidity chamber); type: physicochemical; details: for KF (t = 0): Karl Fischer value at the beginning of the study; for KF (t = 6 days): Karl Fischer value at the end of the study, 6 days in humidity chamber; for hygroscopicity according to the scale: class by % incorporation of water; for Δ % weigth 24 h / Δ % weigth 48 h / Δ % weigth 6 days: humidity chamber, 64% relative humidity, 25±2° C.
Text: The objective was to measure the hygroscopicity of the salts of the present invention, and comparing it with the one of the known salt of each counter part of the salts. The increasing of the weight will be measured in order to evaluate the incorporation of water in the samples, together with the Karl Fischer factor.
According to “Technical guide for the elaboration of monographs” special issue PharmaEuropa, 3rd ed., December 1999, the hygroscopicity is defined based on the augmentation of weight after 24 hours of exposition to 80% of relative humidity at 25° C. The scale is the following:
Methods: • Preparation of the Humidity chamber: A supersaturated solution of sodium nitrite (45 g/50 ml) is prepared and introduced in a humidification chamber (samplaterecord). The chamber is maintained at a temperature of 25±2° C. during 24 hours before use, and humidity is controlled each day. […] 102.2 mg of sodium naproxen. • The samples are introduced in the conditioned humidity chamber, and the weight is controlled after 24 hours, 48 hours, and 6 days, till an equilibrium is reached (2 successive control with a variation of weight less than 0.2 mg). • The Karl Fischer is also determined (using a Methrom 756 KF) at the beginning and at the end of the study.
The variation of the weight is controlled and the following percentage is calculated: Δ% weigth=(Pn−P1)/P1×100 wherein: P1 is the initial weight, Pn is the weight measured for the sample.

[2] = test system: TNBS-induced colonic hypersensitivity; experiment: TNBS-induced colonic hypersensitivity (visceral pain model, colonic distension); type: in vivo, Male Sprague-Dawley rats; details: rats, day 7 after TNBS, 5 mg/kg orally, FIG. 12
Description: The effect of the salts of the present invention on pain is measured in a model of visceral pain well known in the art: the TNBS-induced colonic hypersensitivity. In this model, the injection of trinitrobenzene sulfonic acid (TNBS) into the proximal colon provoke chronic colonic hypersensitivity, measured in conscious rats by a decreased pain threshold in response to colonic distension.
The animals are Male Sprague-Dawley rats (360-400 g, France). They were housed in a temperature (19.5° C. 24.5° C.) and relative humidity (45%-65%) controlled room with a 12 h—light/dark cycle, with ad libitum access to standard pelleted laboratory chow and water throughout the study.
Fasted (24 hours) animals were undergoing surgery for administration of TNBS (50 mg/kg) into the proximal part of the colon. […]
Day 7 after TNBS injection: Compounds were administered and the colonic hypersensitivity due to TNBS-induced colonic inflammation was measured before the treatment, and at t=20, 45, 90 and 120 min after treatment. […]
The 95% confidence intervals of each of the arithmetic means were also calculated.
Statistical significance between the treated groups and the vehicle-treated group was determined by a two-way repeated measures ANOVA followed, when F-value is significant, by an appropriate post-hoc comparison (Bonferroni's test) using SigmaStat software.

Compound: COc1ccc2cc([C@H](C)C(=O)[O-])ccc2c1.[Na+] [sodium naproxen]
- KF (t = 0) [1]: 1.04
- KF (t = 6 days) [1]: 12.65
- hygroscopicity according to the scale [1]: hygroscopic
- Δ % weigth 24 h [1]: 14.39%
- Δ % weigth 48 h [1]: 14.39%
- Δ % weigth 6 days [1]: 14.3%

Compound: COc1cccc(C2(O)CCCCC2CN(C)C)c1 (centres unmarked) [tramadol hydrochloride]
- KF (t = 0) [1]: 0.45
- KF (t = 6 days) [1]: 0.23
- hygroscopicity according to the scale [1]: slightly hygroscopic
- Δ % weigth 24 h [1]: 0.19%
- Δ % weigth 48 h [1]: 0.26%
- Δ % weigth 6 days [1]: 0.18%

Compound: (R,R)-Tramadol-(S)-Naproxene Salt [Example 2]
- colonic threshold (pain threshold to colonic distension) ([2]; 20-120 min after treatment): nearly recovering the same level of colonic threshold than the naive animal
- anti-hypersensitive effect compared with the corresponding combination (Combo-02) [2]: superior effect
